The values below come from patent US8999956B2, “N-[(het)arylalkyl)] pyrazole(thio)carboxamides and their heterosubstituted analogues” (Bayer Intellectual Property GmbH, priority 2010, dated 2015).

The structures appear in SMILES notation. Several values for one entry are separate records, joined by “and”; a condition that tells them apart may be missing. Identical values can stand only once. Like-named read-outs stand apart in the source and are kept apart here.

Data set [1] has as its system Aspergillus parasiticus. Kind of data set: microbe, parasite or virus in culture. The format is cell-based.
Data set [2] is described as follows: log P by HPLC on reversed-phase column (EEC Directive 79/831 Annex V.A8). It counts as physicochemical. The protocol: In table 1, the log P values were determined in accordance with EEC Directive 79/831 Annex V.A8 by HPLC (High Performance Liquid Chromatography) on a reversed-phase column (C18), using the method described below: Temperature: 40° C.; […]
For data set [3], the system named is aflatoxines produced by Aspergillus parasiticus. Kind of data set: microbe, parasite or virus in culture. The format is cell-based.
Data set [4] has as its system Alternaria solani. Kind of data set: In vivo preventive test on Alternaria solani (tomato). Particulars: 500 ppm of active ingredient, evaluated 7 days after inoculation. As for the experimental part:
Solvent: 49 parts by weight of N,N-dimethylformamide Emulsifier: 1 part by weight of Alkylarylpolyglycolether To produce a suitable preparation of active compound, 1 part by weight of active compound is mixed with the stated amounts of solvent and emulsifier, and the concentrate is diluted with water to the desired concentration. To test for preventive activity, young plants are sprayed with the preparation of active compound at the stated rate of application. One day after this treatment, the plants are inoculated with an aqueous spore suspension of Alternaria solani.

The subject of data set [5] is Pyrenophora teres. Nature of the data set: In vivo preventive test on Pyrenophora teres (barley). Particulars: 500 ppm of active ingredient, evaluated 7-9 days after inoculation. The protocol:
Solvent: 49 parts by weight of N,N-dimethylformamide Emulsifier: 1 part by weight of alkylaryl polyglycol ether To produce a suitable preparation of active compound, 1 part by weight of active compound is mixed with the stated amounts of solvent and emulsifier, and the concentrate is diluted with water to the desired concentration. To test for preventive activity, young plants are sprayed with the preparation of active compound at the stated rate of application. One day after this treatment, the plants are inoculated with an aqueous spore suspension of Pyrenophora teres.

For the compound `CN(CCN(C)c1cccc(Cl)c1)C(=O)c1c(C(F)F)nn(C)c1Cl` [Example 81], in data set [1], the “% Inhibition of fungal growth at 50 μM” value came to 80%. This compound also gave a logP in data set [2] of 3.19. For the same compound, in data set [3], the “% Inhibition of Aflatoxin at 50 μM” value amounted to 97%. This compound gave an Efficacy in data set [4] of 90%.
In the case of `CC(C)CC(C)C1CCCC1NC(=O)c1c(C(F)F)nn(C)c1F` (single isomer, unassigned) [Example 317], the “% Inhibition of fungal growth at 50 μM” value in data set [1] (50 µM) was 90%. Moreover, in data set [2], the logP worked out at 4.22 isomer B. Besides, the “% Inhibition of Aflatoxin at 50 μM” value in data set [3] is given as 100%.
On to `CSC1CCCCC1N(C(=O)c1c(C(F)F)nn(C)c1Cl)C1CC1` (stereo not drawn) [Example 352], for which the “% Inhibition of fungal growth at 50 μM” value in data set [1] is recorded as 85%. The same compound had a logP in data set [2] of 3.73. The “% Inhibition of Aflatoxin at 50 μM” value in data set [3] worked out at 99%.
In the case of `CC1CCCC(Cc2cccc(Cl)c2)C1NC(=O)c1c(C(F)F)nn(C)c1F` (mixture of isomers) [Example 255], in data set [1], the “% Inhibition of fungal growth at 50 μM” value was found to be 90%. Besides, the logP in data set [2] (mixture of two or more isomers, one value per isomer, HPLC reversed-phase C18, 40° C., 0.1% aqueous formic acid and acetonitrile) was 4.31 and 4.44 and 4.54. Further, the “% Inhibition of Aflatoxin at 50 μM” value in data set [3] is 100%.
For the compound `Cn1nc(C(F)F)c(C(=O)NC(C)(C)CCc2ccc(Cl)c(Cl)c2)c1F` [Example 134], in data set [1], the “% Inhibition of fungal growth at 50 μM” value came out at 79%. The logP in data set [2] is 4.21. Further, in data set [3], the “% Inhibition of Aflatoxin at 50 μM” value turned out to be 100%.
As to `CC(CCc1ccc(Cl)cc1Cl)NC(=O)c1c(C(F)F)nn(C)c1Cl` (stereo not drawn) [Example 185], the “% Inhibition of fungal growth at 50 μM” value in data set [1] came out at 89%. Also, the logP in data set [2] is 3.99. Further, in data set [3], the “% Inhibition of Aflatoxin at 50 μM” value is listed as 100%.
The like results for `CC(CCc1cc(Cl)cc(Cl)c1)NC(=O)c1c(C(F)F)nn(C)c1Cl` (stereo not drawn) [Example 119] were, in that order, 77%, 4.01 and 95%.
On the same counts, the results for `Cc1ccsc1CCC(C)NC(=O)c1c(C(F)F)nn(C)c1Cl` (stereo not drawn) [Example 76] are 83%, 3.17 and 100%.
Take `Cn1nc(C(F)F)c(C(=O)N(C[Si](C)(C)Cc2cc(Cl)cc(Cl)c2)C2CC2)c1Cl` [Example 292]: in data set [1], the “% Inhibition of fungal growth at 50 μM” value amounted to 86%. Besides, the logP in data set [2] was found to be 5.14. In addition, in data set [3], the “% Inhibition of Aflatoxin at 50 μM” value worked out at 100%.
The like results for `Cc1ccsc1CCC(C)NC(=O)c1c(C(F)F)nn(C)c1F` (stereo not drawn) [Example 77] were, in that order, 98%, 3.02 and 100%.
Take `CC(CCc1ccccc1)NC(=O)c1c(C(F)F)nn(C)c1Cl` (stereo not drawn) [Example 11]: the figures for the Efficacy in data set [5] and in data set [4] were 100% and 95%, respectively. The same compound displayed a logP in data set [2] of 3.04.
The like results for `CCC(COc1cc(C)cc(C)n1)NC(=O)c1c(C(F)F)nn(C)c1Cl` (stereo not drawn) [Example 67] were, in that order, 100%, 70% and 2.14.
On the same counts, the results for `Cn1nc(C(F)F)c(C(=O)NC(C)(C)CCc2ccc(Cl)cc2Cl)c1Cl` [Example 195] are 95%, 95% and 4.61.
Consider `CC(CNC(=O)c1c(C(F)F)nn(C)c1Cl)Cc1cc(Cl)cc(Cl)c1` (stereo not drawn) [Example 115], for which the Efficacy amounted to 100% in data set [5] and 90% in data set [4]. For the same compound, the logP in data set [2] came out at 4.04.
On the same counts, the results for `CN(CCCc1ccccc1)C(=O)c1c(C(F)F)nn(C)c1F` [Example 6] are 70%, 95% and 2.73.
The like results for `CN(c1ccc(Oc2ccccc2)cc1)C(CNC(=O)c1c(C(F)F)nn(C)c1F)C(F)(F)F` (stereo not drawn) [Example 33] were, in that order, 95%, 95% and 4.16.
For `CCC(CCc1sccc1C)NC(=O)c1c(C(F)F)nn(C)c1F` (stereo not drawn) [Example 79], the “% Inhibition of fungal growth at 50 μM” value in data set [1] worked out at 93%. Further, in data set [2], the logP came out at 3.31. Further, the “% Inhibition of Aflatoxin at 50 μM” value in data set [3] worked out at 100%.
Regarding `Cc1ccc(SCC(C2CC2)N(C)C(=O)c2c(C(F)F)nn(C)c2F)cc1` (stereo not drawn) [Example 40], the Efficacy in data set [5] is 80%; in data set [4], 95%. In data set [2], this compound had a logP of 3.64.
The like results for `Cn1nc(C(F)F)c(C(=O)NC(COc2ccc3ccccc3c2)C2CC2)c1F` (racemic) [Example 137] were, in that order, 89%, 95% and 3.74.
`CSC1CCCCC1N(C(=O)c1c(C(F)F)nn(C)c1F)C1CC1` (stereo not drawn) [Example 351]: in data set [1], the “% Inhibition of fungal growth at 50 μM” value was determined as 100%. The same compound displayed a logP in data set [2] of 3.50. Also, in data set [3], the “% Inhibition of Aflatoxin at 50 μM” value is recorded as 100%.
For `Cn1nc(C(F)F)c(C(=O)NC(C)(C)CCc2cc(Cl)ccc2Cl)c1Cl` [Example 177], the Efficacy in data set [5] and in data set [4] was 100% throughout. For the same compound, in data set [2], the logP is reported as 4.49.
On to `CCC(CCc1sccc1C)NC(=O)c1c(C(F)F)nn(C)c1Cl` (stereo not drawn) [Example 78], for which, in data set [1], the “% Inhibition of fungal growth at 50 μM” value is on record as 65%. In data set [2], this compound yielded a logP of 3.48. The “% Inhibition of Aflatoxin at 50 μM” value in data set [3] is 83%.
As for `CN(c1ccc(Oc2ccccc2)cc1)C(CNC(=O)c1c(C(F)F)nn(C)c1Cl)C(F)(F)F` (stereo not drawn) [Example 32], the results for the Efficacy in data set [5] and in data set [4] were 70% and 95%, respectively. This compound also came in with a logP in data set [2] of 4.27.
On the same counts, the results for `CCN(C(=O)c1c(C(F)F)nn(C)c1F)C(C)COc1ccc(C)cc1` (stereo not drawn) [Example 38] are 80%, 80% and 3.27.
On the same counts, the results for `CC(CNC(=O)c1c(C(F)F)nn(C)c1Cl)Cc1c(F)cccc1F` (stereo not drawn) [Example 158] are 95%, 80% and 3.21.
The like results for `CN(C(=O)c1c(C(F)F)nn(C)c1F)C(COc1ccccc1)C1CC1` (stereo not drawn) [Example 21] were, in that order, 80%, 90% and 3.08.
With `CC(CCc1cc(Cl)cc(Cl)c1)NC(=O)c1c(C(F)F)nn(C)c1F` (stereo not drawn) [Example 120], the “% Inhibition of fungal growth at 50 μM” value in data set [1] was 100%. Moreover, the logP in data set [2] was 3.83. The “% Inhibition of Aflatoxin at 50 μM” value in data set [3] is 100%.
Take `Cn1nc(C(F)F)c(C(=O)N(CCOc2c(Cl)cc(Cl)cc2Cl)C2COC2)c1F` [Example 210]: the Efficacy is 90% in data set [5] and 70% in data set [4]. In data set [2], this compound displayed a logP of 3.42.
Take `Cn1nc(C(F)F)c(C(=O)NCCOc2cc(Cl)cc(Cl)c2)c1F` [Example 117]: the “% Inhibition of fungal growth at 50 μM” value in data set [1] came out at 81%. Also, the Efficacy in data set [5] is recorded as 78%. In data set [2], this compound gave a logP of 3.35. The “% Inhibition of Aflatoxin at 50 μM” value in data set [3] is reported as 99%.
As to `CN(C(=O)c1c(C(F)F)nn(C)c1F)C(COc1ccccc1Cl)C1CC1` (racemic) [Example 145], the Efficacy in data set [5] and in data set [4] was 70% in each case. For the same compound, the logP in data set [2] stood at 3.44.
Turning to `Cn1nc(C(F)F)c(C(=O)NCCOc2c(Cl)cc(Cl)cc2Cl)c1F` [Example 202], the “% Inhibition of fungal growth at 50 μM” value in data set [1] is 84%. This compound also showed an Efficacy in data set [5] of 80%. For the same compound, the logP in data set [2] was determined as 3.60. Further, the “% Inhibition of Aflatoxin at 50 μM” value in data set [3] is 100%.
